Structures are written as SMILES.

In general, IC50 refers to the point on the concentration scale where inhibition reaches its midpoint. Lower therefore signals greater potency in that assay.

The target in assay [1] is T1, IRAK4 (Homo sapiens, UniProt Q9NWZ3).
T1 sequence (Q9NWZ3 1-460): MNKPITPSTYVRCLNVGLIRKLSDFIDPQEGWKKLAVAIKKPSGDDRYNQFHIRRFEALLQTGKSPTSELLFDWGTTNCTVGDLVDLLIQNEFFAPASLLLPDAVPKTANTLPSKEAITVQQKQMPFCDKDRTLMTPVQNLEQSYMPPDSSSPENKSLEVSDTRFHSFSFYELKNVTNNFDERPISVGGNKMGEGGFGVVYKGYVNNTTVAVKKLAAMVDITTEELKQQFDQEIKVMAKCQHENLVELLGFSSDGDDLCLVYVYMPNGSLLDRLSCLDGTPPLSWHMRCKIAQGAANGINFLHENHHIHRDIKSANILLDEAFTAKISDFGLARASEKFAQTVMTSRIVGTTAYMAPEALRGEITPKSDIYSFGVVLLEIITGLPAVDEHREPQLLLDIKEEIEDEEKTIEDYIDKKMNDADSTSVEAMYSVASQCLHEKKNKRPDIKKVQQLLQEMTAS
As to the kind of experiment: 2-hour 10 μM ATP Biochemical Assay (MesoScale Detection format; IRAK4 phosphorylation of biotin labeled IRAK1 activation loop peptide). To be noted: IRAK4 MSD BIOCHEMICAL (10 μM ATP) IC50 (μM), 1 nM IRAK4, 2 hours. The method in brief:
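Kinase reaction run 2 h at 10 μM ATP with biotinylated IRAK1 activation-loop peptide, quenched with EDTA. Phospho-peptide captured on streptavidin MSD plates and detected with anti-phosphothreonine rabbit antibody plus Sulfo-Tag anti-rabbit electrochemiluminescence.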

The target in assay [2] is T1, IRAK4. As to the kind of experiment: 2-hour 1 mM ATP IRAK4 Biochemical assay (as above, but with 100 pM IRAK4 and 1 mM ATP). The following applies: IRAK4 MSD BIOCHEMICAL (1 mM ATP) IC50 (μM), 100 pM IRAK4, 2 hours. The method in brief: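 Run with 100 pM IRAK4 and 1 mM ATP for 2 hours, quenched with EDTA pH 8. Phosphorylated biotinylated peptide captured on streptavidin MSD plates and detected with anti-phosphothreonine antibody plus Sulfo-Tag secondary by electrochemiluminescence.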

For the compound `COc1cc(NC(=O)c2cccc(C(F)F)n2)cn2cc(C3CC4(CCOC4)C3)nc12` (stereo not drawn) [Example 507, 6-(difluoromethyl)-N-(8-methoxy-2-(6-oxaspiro[3.4]octan-2-yl)imidazo[1,2-a]pyridin-6-yl)picolinamide], the IC50 in assay [1] turned out to be 0.002 µM; in assay [2], 0.004 µM.

On to `COc1cc(NC(=O)c2cccc(C(F)F)n2)cn2cc(C3CCOC(C)(C)C3)nc12` (stereo not drawn) [Example 510, 6-(difluoromethyl)-N-(2-(2,2-dimethyltetrahydro-2H-pyran-4-yl)-8-methoxyimidazo[1,2-a]pyridin-6-yl)picolinamide 2,2,2-trifluoroacetate], for which the IC50 stood at 0.001 µM in assay [1] and 0.002 µM in assay [2].

With `CCOc1cc2nc(C3CCOCC3)cn2cc1NC(=O)c1cccc(OCCOC)n1` [Example 516, N-(7-ethoxy-2-(tetrahydro-2H-pyran-4-yl)imidazo[1,2-a]pyridin-6-yl)-6-(2-methoxyethoxy)picolinamide], the values for the IC50 in assay [1] and in assay [2] were 0.007 µM and 0.034 µM, respectively.

Take `CCOc1cc2nc(C34CC(C)(C3)C4)cn2cc1NC(=O)c1cccc(C(F)(F)F)n1` [Example 520, N-(7-ethoxy-2-(3-methylbicyclo[1.1.1]pentan-1-yl)imidazo[1,2-a]pyridin-6-yl)-6-(trifluoromethyl)picolinamide 2,2,2-trifluoroacetate]: the IC50 is 0.001 µM in assay [1] and 0.005 µM in assay [2].

`CCOc1cc2nc(C34CC(C#N)(C3)C4)cn2cc1NC(=O)c1cccc(C(F)(F)F)n1` [Example 521, N-(2-(3-cyanobicyclo[1.1.1]pentan-1-yl)-7-ethoxyimidazo[1,2-a]pyridin-6-yl)-6-(trifluoromethyl)picolinamide 2,2,2-trifluoroacetate]: the IC50 in assay [1] and in assay [2] was 0.001 µM throughout.

Regarding `CCOc1cc2nc(C34CC(C(F)F)(C3)C4)cn2cc1NC(=O)c1cccc(C(F)(F)F)n1` [Example 522, N-(2-(3-(difluoromethyl)bicyclo[1.1.1]pentan-1-yl)-7-ethoxyimidazo[1,2-a]pyridin-6-yl)-6-(trifluoromethyl)picolinamide 2,2,2-trifluoroacetate], the results for the IC50 in assay [1] and in assay [2] were 0.001 µM and 0.002 µM, respectively.

Take `CCOc1cc2nc(C34CC(COC)(C3)C4)cn2cc1NC(=O)c1cccc(C(F)(F)F)n1` [Example 523, N-(7-ethoxy-2-(3-(methoxymethyl)bicyclo[1.1.1]pentan-1-yl)imidazo[1,2-a]pyridin-6-yl)-6-(trifluoromethyl)picolinamide]: the IC50 in assay [1] and in assay [2] was 0.001 µM each time.

In the case of `CCOc1cc2nc(CCCOC)cn2cc1NC(=O)c1cccc(OC)n1` [Example 524, N-(7-ethoxy-2-(3-methoxypropyl)imidazo[1,2-a]pyridin-6-yl)-6-methoxypicolinamide], the IC50 in assay [1] was 0.004 µM; in assay [2], 0.015 µM.

Consider `CC(C)Oc1c(NC(=O)c2cnn3cccnc23)cn2cc(C34COC(C)(C3)C4)nc2c1F` [Example 577, N-(8-fluoro-7-isopropoxy-2-(1-methyl-2-oxabicyclo[2.1.1]hexan-4-yl)imidazo[1,2-a]pyridin-6-yl)pyrazolo[1,5-a]pyrimidine-3-carboxamide], for which the IC50 amounted to 0.003 µM in assay [1] and 0.001 µM in assay [2].

The record behind these values is patent publication US20220089592A1, “IMIDAZO[1,2-A]PYRIDINYL DERIVATIVES AS IRAK4 INHIBITORS” (priority 2019, published 2022).
